The record followed here is patent US8735414B2 (priority 2009, dated 2014).

The test system of data set [1] is bicistronic HCV replicon (replicon RNA, GenBank Accession No. AJ242654). Briefly: HCV Replicon Assay. It is filed as cell-based. To be noted: Hepatitis C virus, 72 h, read-out: Replicon IC50. (In general: In antiviral work, replicon cells carry a viral genome segment that copies itself.)

Each structure is given as a SMILES string.

On to `C[C@H](NS(=O)(=O)c1cnc(-c2c(C#N)c3ccc(OC(F)F)cc3n2C2CCCCC2)nc1)C(F)(F)F` [compound 472, 2-[3-cyano-1-cyclohexyl-6-(difluoromethoxy)-1H-indol-2-yl]-N-[(2S)-1,1,1-trifluoropropan-2-yl]pyrimidine-5-sulfonamide], for which the melting point (in general, the temperature of the solid-liquid transition) is 187 to 189 °C. Moreover, the IC50 (commonly the concentration that inhibits the measured activity by half) in data set [1] is less than 500 nM.
On the same counts, the results for `CC(C)NS(=O)(=O)c1cnc(-c2c(C#N)c3ccc(OC(F)F)cc3n2C2CCCCC2)nc1` [compound 473, 2-[3-cyano-1-cyclohexyl-6-(difluoromethoxy)-1H-indol-2-yl]-N-(propan-2-yl)pyrimidine-5-sulfonamide] are 176 to 179 °C and less than 500 nM.
In turn, `C[C@H](NS(=O)(=O)c1cnc(-c2c(C#N)c3cc(F)ccc3n2-c2ccccn2)nc1)C(F)(F)F` [compound 474, 2-[3-cyano-5-fluoro-1-(pyridin-2-yl)-1H-indol-2-yl]-N-[(2S)-1,1,1-trifluoropropan-2-yl]pyrimidine-5-sulfonamide] registered a melting point of 209 to 210 °C. Besides, the half-maximal inhibitory concentration (IC50) in data set [1] is less than 500 nM.
On the same counts, the results for `Cc1ccc2c(C#N)c(-c3ncc(S(=O)(=O)N[C@@H](C)C(F)(F)F)cn3)n(-c3ccccn3)c2c1` [compound 475, 2-[3-cyano-6-methyl-1-(pyridin-2-yl)-1H-indol-2-yl]-N-[(2S)-1,1,1-trifluoropropan-2-yl]pyrimidine-5-sulfonamide] are 210 to 212 °C and less than 500 nM.
Take `Cc1ccc2c(C#N)c(-c3ccc(S(=O)(=O)N[C@@H](C)C(F)(F)F)cn3)n(-c3ccccn3)c2c1` [compound 476, 6-[3-cyano-6-methyl-1-(pyridin-2-yl)-1H-indol-2-yl]-N-[(2S)-1,1,1-trifluoropropan-2-yl]pyridine-3-sulfonamide]: the melting point was 199 to 203 °C. Further, the IC50 in data set [1] was less than 500 nM.
On the same counts, the results for `N#Cc1c(-c2ncc(S(=O)(=O)NC(CF)CF)cn2)n(-c2ccc(F)cc2)c2cc(OC(F)F)ccc12` [compound 477, 2-[3-cyano-6-(difluoromethoxy)-1-(4-fluorophenyl)-1H-indol-2-yl]-N-(1,3-difluoropropan-2-yl)pyrimidine-5-sulfonamide] are 213 to 216 °C and less than 500 nM.
On the same counts, the results for `Cc1ccc2c(C#N)c(-c3ccc(S(=O)(=O)NC(C)(C)C(F)(F)F)cn3)n(C3CCC3)c2c1` [compound 478, 6-(3-cyano-1-cyclobutyl-6-methyl-1H-indol-2-yl)-N-(1,1,1-trifluoro-2-methylpropan-2-yl)pyridine-3-sulfonamide] are 222 to 227 °C and less than 500 nM.
On the same counts, the results for `Cc1ccc2c(c1)c(C#N)c(-c1ccc(S(=O)(=O)NC(C)(C)C(F)(F)F)cn1)n2C1CCC1` [compound 480, 6-(3-cyano-1-cyclobutyl-5-methyl-1H-indol-2-yl)-N-(1,1,1-trifluoro-2-methylpropan-2-yl)pyridine-3-sulfonamide] are 182 to 187 °C and less than 500 nM.
Molecule `CCc1ccc2c(C#N)c(-c3ccc(S(=O)(=O)NC(C)(C)C(F)(F)F)cn3)n(C3CCC3)c2c1` [compound 481, 6-(3-cyano-1-cyclobutyl-6-ethyl-1H-indol-2-yl)-N-(1,1,1-trifluoro-2-methylpropan-2-yl)pyridine-3-sulfonamide] came in with a melting point of 160 to 165 °C. In data set [1], the IC50 was less than 500 nM.
As for `Cc1cc2c(C#N)c(-c3ccc(S(=O)(=O)NC(CF)CF)cn3)n(C3CCCC3)c2cc1F` [compound 482, 6-(3-cyano-1-cyclopentyl-6-fluoro-5-methyl-1H-indol-2-yl)-N-(1,3-difluoropropan-2-yl)pyridine-3-sulfonamide], the melting point lay within 207 to 211 °C. The IC50 in data set [1] is less than 500 nM.
On the same counts, the results for `Cc1cc2c(C#N)c(-c3ccc(S(=O)(=O)N[C@@H](C)C(F)(F)F)cn3)n(C3CCCC3)c2cc1F` [compound 483, 6-(3-cyano-1-cyclopentyl-6-fluoro-5-methyl-1H-indol-2-yl)-N-[(2S)-1,1,1-trifluoropropan-2-yl]pyridine-3-sulfonamide] are 219 to 223 °C and less than 500 nM.
On the same counts, the results for `Cc1ccc2c(c1)c(C#N)c(-c1ccc(S(=O)(=O)N[C@H](C)C(F)(F)F)cn1)n2C1CCC1` [compound 484, 6-(3-cyano-1-cyclobutyl-5-methyl-1H-indol-2-yl)-N-[(2R)-1,1,1-trifluoropropan-2-yl]pyridine-3-sulfonamide] are 134 to 142 °C and less than 500 nM.
On the same counts, the results for `Cc1ccc2c(c1)c(C#N)c(-c1ccc(S(=O)(=O)N[C@H](C)C(F)(F)F)cn1)n2C(C)C` [compound 485, 6-[3-cyano-5-methyl-1-(propan-2-yl)-1H-indol-2-yl]-N-[(2R)-1,1,1-trifluoropropan-2-yl]pyridine-3-sulfonamide] are 167 to 173 °C and less than 500 nM.
With `Cc1ccc2c(c1)c(C#N)c(-c1ccc(S(=O)(=O)N[C@H](C)C(F)(F)F)cn1)n2C1CCCCC1` [compound 487, 6-(3-cyano-1-cyclohexyl-5-methyl-1H-indol-2-yl)-N-[(2R)-1,1,1-trifluoropropan-2-yl]pyridine-3-sulfonamide], the melting point was in the range of 180 to 189 °C. Further, the concentration for half-maximal inhibition (IC50) in data set [1] was less than 500 nM.
On the same counts, the results for `C[C@H](NS(=O)(=O)c1ccc(-c2c(C#N)c3ccc(Cl)cc3n2-c2ccccn2)nc1)C1CC1` [compound 488, 6-[6-chloro-3-cyano-1-(pyridin-2-yl)-1H-indol-2-yl]-N-[(1S)-1-cyclopropylethyl]pyridine-3-sulfonamide] are 199 to 201 °C and less than 500 nM.
Take `C[C@@H](NS(=O)(=O)c1ccc(-c2c(C#N)c3ccc(Cl)cc3n2-c2ccccn2)nc1)C(F)(F)F` [compound 489, 6-[6-chloro-3-cyano-1-(pyridin-2-yl)-1H-indol-2-yl]-N-[(2R)-1,1,1-trifluoropropan-2-yl]pyridine-3-sulfonamide]: the melting point was in the range of 198 to 199 °C. Further, the half-inhibitory concentration (IC50) in data set [1] fell in the range of 500 to 2000 nM.
On the same counts, the results for `C[C@H](NS(=O)(=O)c1ccc(-c2c(C#N)c3cc(Cl)ccc3n2-c2ccccn2)nc1)C1CC1` [compound 490, 6-[5-chloro-3-cyano-1-(pyridin-2-yl)-1H-indol-2-yl]-N-[(1S)-1-cyclopropylethyl]pyridine-3-sulfonamide] are 136 to 139 °C and 2000 to 5000 nM.
On the same counts, the results for `C[C@@H](NS(=O)(=O)c1ccc(-c2c(C#N)c3cc(Cl)ccc3n2-c2ccccn2)nc1)C(F)(F)F` [compound 491, 6-[5-chloro-3-cyano-1-(pyridin-2-yl)-1H-indol-2-yl]-N-[(2R)-1,1,1-trifluoropropan-2-yl]pyridine-3-sulfonamide] are 150 to 154 °C and 500 to 2000 nM.
Turning to `Cc1cc2c(C#N)c(-c3ccc(S(=O)(=O)N[C@@H](C)C(F)(F)F)cn3)n(C3CCC3)c2cc1F` [compound 492, 6-(3-cyano-1-cyclobutyl-6-fluoro-5-methyl-1H-indol-2-yl)-N-[(2S)-1,1,1-trifluoropropan-2-yl]pyridine-3-sulfonamide], the melting point is 185 to 190 °C. Further, the 50% inhibitory concentration (IC50) in data set [1] is less than 500 nM.
On to `Cc1cc2c(C#N)c(-c3ccc(S(=O)(=O)NC(CF)CF)cn3)n(C3CCC3)c2cc1F` [compound 493, 6-(3-cyano-1-cyclobutyl-6-fluoro-5-methyl-1H-indol-2-yl)-N-(1,3-difluoropropan-2-yl)pyridine-3-sulfonamide], for which the melting point was in the range of 209 to 213 °C. Moreover, the IC50 in data set [1] was less than 500 nM.
On to `C[C@H](NS(=O)(=O)c1cnc(-c2c(C#N)c3ccc(F)cc3n2C2CCC2)nc1)C(F)(F)F` [compound 494, 2-(3-cyano-1-cyclobutyl-6-fluoro-1H-indol-2-yl)-N-[(2S)-1,1,1-trifluoropropan-2-yl]pyrimidine-5-sulfonamide], for which the melting point is 223 to 225 °C. The IC50 in data set [1] is 2000 to 5000 nM.
Consider `C[C@H](NS(=O)(=O)c1cnc(-c2c(C#N)c3ccc(F)cc3n2C2CCCC2)nc1)C(F)(F)F` [compound 495, 2-(3-cyano-1-cyclopentyl-6-fluoro-1H-indol-2-yl)-N-[(2S)-1,1,1-trifluoropropan-2-yl]pyrimidine-5-sulfonamide], for which the melting point was 217 to 219 °C. In addition, the IC50 in data set [1] lay in the range of 2000 to 5000 nM.
The molecule `C[C@H](NS(=O)(=O)c1cnc(-c2c(C#N)c3ccc(F)cc3n2C2CCC2)nc1)C1CC1` [compound 496, 2-(3-cyano-1-cyclobutyl-6-fluoro-1H-indol-2-yl)-N-[(1S)-1-cyclopropylethyl]pyrimidine-5-sulfonamide] showed a melting point of 207 to 208 °C. For the same molecule, the IC50 in data set [1] was 500 to 2000 nM.
On the same counts, the results for `C[C@H](NS(=O)(=O)c1cnc(-c2c(C#N)c3ccc(F)cc3n2CC2CC2)nc1)C1CC1` [compound 498, 2-[3-cyano-1-(cyclopropylmethyl)-6-fluoro-1H-indol-2-yl]-N-[(1S)-1-cyclopropylethyl]pyrimidine-5-sulfonamide] are 198 to 199 °C and 500 to 2000 nM.
`C[C@H](NS(=O)(=O)c1cnc(-c2c(C#N)c3ccc(F)cc3n2C2CCCCC2)nc1)C1CC1` [compound 499, 2-(3-cyano-1-cyclohexyl-6-fluoro-1H-indol-2-yl)-N-[(1S)-1-cyclopropylethyl]pyrimidine-5-sulfonamide] displayed a melting point of 169 to 170 °C. The IC50 in data set [1] was less than 500 nM.
On the same counts, the results for `COc1ccc2c(c1)c(C#N)c(-c1ccc(S(=O)(=O)N[C@H](C)C(F)(F)F)cn1)n2C1CCC1` [compound 500, 6-(3-cyano-1-cyclobutyl-5-methoxy-1H-indol-2-yl)-N-[(2R)-1,1,1-trifluoropropan-2-yl]pyridine-3-sulfonamide] are 181 to 186 °C and less than 500 nM.
For `N#Cc1c(-c2ccc(S(=O)(=O)NC(CF)CF)cn2)n(-c2ccccn2)c2cc(C3CC3)ccc12` [compound 501, 6-[3-cyano-6-cyclopropyl-1-(pyridin-2-yl)-1H-indol-2-yl]-N-(1,3-difluoropropan-2-yl)pyridine-3-sulfonamide], the melting point was in the range of 210 to 213 °C. For the same molecule, in data set [1], the IC50 is less than 500 nM.
